Measured values reported in patent US11083725B2 (priority 2014, dated 2021).

System: NHBE cells
Experiment: Biolog metabolic array: substrate use by NHBE cells with or without CA09 infection
Type: cell-based, human
Conditions: for Substrate use, 590 nm absorbance normalized to zero hour, 0 hr: Biolog PMM2, 0 hr; for Substrate use, 590 nm absorbance normalized to zero hour, 1 hr: Biolog PMM2, 1 hr; for Substrate use, 590 nm absorbance normalized to zero hour, 5 hr: Biolog PMM2, 5 hr; for Substrate use, 590 nm absorbance normalized to zero hour, 7 hr: Biolog PMM2, 7 hr
[1] = Control (uninfected) NHBE cells
[2] = Virus (CA09, MOI 1) infected NHBE cells
[3] = Virus (CA09-infected, MOI 1) NHBE cells
[4] = Virus (CA09-infected NHBE cells, MOI 1)
[5] = Virus: CA09-infected NHBE cells, MOI 1, Biolog PMM2

CO[C@H]1O[C@H](CO)[C@@H](O)[C@H](O)[C@H]1O [a-Methyl-D-Glucoside]
590 nm absorbance normalized to zero hour (substrate use), 0 hr [1]: 1.00 | 590 nm absorbance normalized to zero hour (substrate use), 1 hr [1]: 1.18 | 590 nm absorbance normalized to zero hour (substrate use), 2 hr [1]: 1.07 | 590 nm absorbance normalized to zero hour (substrate use), 3 hr [1]: 1.02 | 590 nm absorbance normalized to zero hour (substrate use), 4 hr [1]: 0.58 | 590 nm absorbance normalized to zero hour (substrate use), 6 hr [1]: 0.90 | 590 nm absorbance normalized to zero hour (substrate use), 8 hr [1]: 0.74 | 590 nm absorbance normalized to zero hour (substrate use), 9 hr [1]: 0.79 | 590 nm absorbance normalized to zero hour (substrate use), 10 hr [1]: 0.83 | 590 nm absorbance normalized to zero hour (substrate use), 11 hr [1]: 0.93 | Substrate use, 590 nm absorbance normalized to zero hour, 0 hr [1]: 1.00 | Substrate use, 590 nm absorbance normalized to zero hour, 1 hr [1]: 1.18 | Substrate use, 590 nm absorbance normalized to zero hour, 5 hr [1]: 0.76 | Substrate use, 590 nm absorbance normalized to zero hour, 7 hr [1]: 0.68 | Substrate use, 590 nm absorbance normalized to zero hour, 0 hr [2]: 1.00 | Substrate use, 590 nm absorbance normalized to zero hour, 1 hr [2]: 1.29 | Substrate use, 590 nm absorbance normalized to zero hour, 5 hr [2]: 2.31 | Substrate use, 590 nm absorbance normalized to zero hour, 7 hr [2]: 2.67 | 590 nm absorbance normalized to zero hour (substrate use), 0 hr [3]: 1.00 | 590 nm absorbance normalized to zero hour (substrate use), 1 hr [3]: 1.29 | 590 nm absorbance normalized to zero hour (substrate use), 2 hr [3]: 1.66 | 590 nm absorbance normalized to zero hour (substrate use), 3 hr [3]: 1.87 | 590 nm absorbance normalized to zero hour (substrate use), 4 hr [3]: 1.99 | 590 nm absorbance normalized to zero hour (substrate use), 6 hr [3]: 2.50 | 590 nm absorbance normalized to zero hour (substrate use), 8 hr [3]: 2.77 | 590 nm absorbance normalized to zero hour (substrate use), 9 hr [3]: 3.14 | 590 nm absorbance normalized to zero hour (substrate use), 10 hr [3]: 3.10 | 590 nm absorbance normalized to zero hour (substrate use), 11 hr [3]: 3.31

CO[C@H]1O[C@H](CO)[C@@H](O)[C@H](O)[C@@H]1O [a-Methyl-D-Mannoside]
590 nm absorbance normalized to zero hour (substrate use), 0 hr [1]: 1.00 | 590 nm absorbance normalized to zero hour (substrate use), 1 hr [1]: 1.26 | 590 nm absorbance normalized to zero hour (substrate use), 2 hr [1]: 1.58 | 590 nm absorbance normalized to zero hour (substrate use), 3 hr [1]: 1.74 | 590 nm absorbance normalized to zero hour (substrate use), 4 hr [1]: 1.89 | 590 nm absorbance normalized to zero hour (substrate use), 6 hr [1]: 2.77 | 590 nm absorbance normalized to zero hour (substrate use), 8 hr [1]: 2.13 | 590 nm absorbance normalized to zero hour (substrate use), 9 hr [1]: 2.16 | 590 nm absorbance normalized to zero hour (substrate use), 10 hr [1]: 2.95 | 590 nm absorbance normalized to zero hour (substrate use), 11 hr [1]: 2.58 | Substrate use, 590 nm absorbance normalized to zero hour, 0 hr [1]: 1.00 | Substrate use, 590 nm absorbance normalized to zero hour, 1 hr [1]: 1.26 | Substrate use, 590 nm absorbance normalized to zero hour, 5 hr [1]: 2.33 | Substrate use, 590 nm absorbance normalized to zero hour, 7 hr [1]: 2.46 | 590 nm absorbance normalized to zero hour (substrate use), 0 hr [4]: 1.00 | 590 nm absorbance normalized to zero hour (substrate use), 1 hr [4]: 0.38 | 590 nm absorbance normalized to zero hour (substrate use), 2 hr [4]: 0.54 | 590 nm absorbance normalized to zero hour (substrate use), 3 hr [4]: 0.64 | 590 nm absorbance normalized to zero hour (substrate use), 4 hr [4]: 0.69 | 590 nm absorbance normalized to zero hour (substrate use), 5 hr [4]: 0.83 | 590 nm absorbance normalized to zero hour (substrate use), 6 hr [4]: 0.89 | 590 nm absorbance normalized to zero hour (substrate use), 7 hr [4]: 0.93 | 590 nm absorbance normalized to zero hour (substrate use), 8 hr [4]: 0.99 | 590 nm absorbance normalized to zero hour (substrate use), 9 hr [4]: 1.10 | 590 nm absorbance normalized to zero hour (substrate use), 10 hr [4]: 1.14 | 590 nm absorbance normalized to zero hour (substrate use), 11 hr [4]: 1.24 | 590 nm absorbance normalized to zero hour (substrate use), 0 hr [5]: 1.00 | 590 nm absorbance normalized to zero hour (substrate use), 1 hr [5]: 0.38 | 590 nm absorbance normalized to zero hour (substrate use), 2 hr [5]: 0.54 | 590 nm absorbance normalized to zero hour (substrate use), 3 hr [5]: 0.64 | 590 nm absorbance normalized to zero hour (substrate use), 4 hr [5]: 0.69 | 590 nm absorbance normalized to zero hour (substrate use), 5 hr [5]: 0.83 | 590 nm absorbance normalized to zero hour (substrate use), 6 hr [5]: 0.89 | 590 nm absorbance normalized to zero hour (substrate use), 7 hr [5]: 0.93 | 590 nm absorbance normalized to zero hour (substrate use), 8 hr [5]: 0.99 | 590 nm absorbance normalized to zero hour (substrate use), 9 hr [5]: 1.10 | 590 nm absorbance normalized to zero hour (substrate use), 10 hr [5]: 1.14 | 590 nm absorbance normalized to zero hour (substrate use), 11 hr [5]: 1.24

C[C@@H](O)CC(=O)O [b-Hydroxy-Butyric Acid]
590 nm absorbance normalized to zero hour (substrate use), 0 hr [1]: 1.00 | 590 nm absorbance normalized to zero hour (substrate use), 1 hr [1]: 1.65 | 590 nm absorbance normalized to zero hour (substrate use), 2 hr [1]: 2.08 | 590 nm absorbance normalized to zero hour (substrate use), 3 hr [1]: 2.16 | 590 nm absorbance normalized to zero hour (substrate use), 4 hr [1]: 2.31 | 590 nm absorbance normalized to zero hour (substrate use), 6 hr [1]: 2.37 | 590 nm absorbance normalized to zero hour (substrate use), 8 hr [1]: 2.68 | 590 nm absorbance normalized to zero hour (substrate use), 9 hr [1]: 2.90 | 590 nm absorbance normalized to zero hour (substrate use), 10 hr [1]: 3.02 | 590 nm absorbance normalized to zero hour (substrate use), 11 hr [1]: 7.04 | Substrate use, 590 nm absorbance normalized to zero hour, 0 hr [1]: 1.00 | Substrate use, 590 nm absorbance normalized to zero hour, 1 hr [1]: 1.65 | Substrate use, 590 nm absorbance normalized to zero hour, 5 hr [1]: 2.75 | Substrate use, 590 nm absorbance normalized to zero hour, 7 hr [1]: 2.49 | 590 nm absorbance normalized to zero hour (substrate use), 0 hr [3]: 1.00 | 590 nm absorbance normalized to zero hour (substrate use), 1 hr [3]: 1.78 | 590 nm absorbance normalized to zero hour (substrate use), 2 hr [3]: 2.31 | 590 nm absorbance normalized to zero hour (substrate use), 3 hr [3]: 2.61 | 590 nm absorbance normalized to zero hour (substrate use), 4 hr [3]: 2.77 | 590 nm absorbance normalized to zero hour (substrate use), 5 hr [3]: 3.16 | 590 nm absorbance normalized to zero hour (substrate use), 6 hr [3]: 3.34 | 590 nm absorbance normalized to zero hour (substrate use), 7 hr [3]: 3.47 | 590 nm absorbance normalized to zero hour (substrate use), 8 hr [3]: 3.62 | 590 nm absorbance normalized to zero hour (substrate use), 9 hr [3]: 3.79 | 590 nm absorbance normalized to zero hour (substrate use), 10 hr [3]: 3.87 | 590 nm absorbance normalized to zero hour (substrate use), 11 hr [3]: 3.29 | 590 nm absorbance normalized to zero hour (substrate use), 0 hr [5]: 1.00 | 590 nm absorbance normalized to zero hour (substrate use), 1 hr [5]: 1.78 | 590 nm absorbance normalized to zero hour (substrate use), 2 hr [5]: 2.31 | 590 nm absorbance normalized to zero hour (substrate use), 3 hr [5]: 2.61 | 590 nm absorbance normalized to zero hour (substrate use), 4 hr [5]: 2.77 | 590 nm absorbance normalized to zero hour (substrate use), 5 hr [5]: 3.16 | 590 nm absorbance normalized to zero hour (substrate use), 6 hr [5]: 3.34 | 590 nm absorbance normalized to zero hour (substrate use), 7 hr [5]: 3.47 | 590 nm absorbance normalized to zero hour (substrate use), 8 hr [5]: 3.62 | 590 nm absorbance normalized to zero hour (substrate use), 9 hr [5]: 3.79 | 590 nm absorbance normalized to zero hour (substrate use), 10 hr [5]: 3.87 | 590 nm absorbance normalized to zero hour (substrate use), 11 hr [5]: 3.29
